Assay results as given in ChEMBL document CHEMBL2412967, “A FRET-based assay for the discovery of West Nile Virus NS2B-NS3 protease inhibitors” (Bioorg Med Chem Lett, 2013).
Peptide text beside a SMILES is read from it.

Legend:
West Nile virus [1] = assay: Activity at West Nile Virus NS2B-NS3 protease expressed in Escherichia coli BL21 (DE3) after 1 hr by colorimetric assay
West Nile virus [2] = assay: Activity at West Nile Virus NS2B-NS3 protease expressed in Escherichia coli BL21 (DE3) after 1 hr by FRET assay
West Nile virus [3] = assay: Ratio of kcat to Km for West Nile Virus NS2B-NS3 protease expressed in Escherichia coli BL21 (DE3) after 1 hr by FRET assay
West Nile virus [4] = assay: Ratio of kcat to Km for West Nile Virus NS2B-NS3 protease expressed in Escherichia coli BL21 (DE3) after 1 hr by colorimetric assay

**Q.** Which results are given for COc1ccc2c(CC(=O)N[C@@H](CCCCN)C(=O)N[C@@H](CCCCN)C(=O)N[C@@H](CCCNC(=N)N)C(=O)NCC(=O)NCC(Nc3ccc([N+](=O)[O-])cc3[N+](=O)[O-])C(=O)N[C@@H](C)C(=O)N[C@@H](CCCCN)C(N)=O)cc(=O)oc2c1 (stereo partly specified) (HELM PEPTIDE1{[COc1ccc2c(CC(=O)[*:2])cc(=O)oc2c1].K.K.R.G.[C[C@H](NC(=O)C(CN[*:1])Nc1ccc([N+](=O)[O-])cc1[N+](=O)[O-])C(=O)N[C@@H](CCCCN)C(N)=O]}$$$$V2.0)?
**A.** Km (West Nile virus [1]): 69.9 µM; kcat (West Nile virus [1]): 0.263 s⁻¹; Km (West Nile virus [2]): 3.35 µM; kcat (West Nile virus [2]): 0.0717 s⁻¹; kcat/Km (West Nile virus [3]): 21400 M⁻¹ s⁻¹; kcat/Km (West Nile virus [4]): 3760 M⁻¹ s⁻¹
